Measured values taken from US8343531B2, “Composition containing peptide as active ingredient” (Meiji Co., Ltd., priority 2006, dated 2013).
Residues, ends and D or L forms follow the SMILES beside them.

How the values were obtained:
Rat L6 myotubes = assay: Rate of glucose uptake into muscle cells; format: cell-based; conditions: 1 mM dipeptide, 3 hours, then 8 mM 2-deoxyglucose 10 minutes; average ± SD; control 1.21 ± 0.07
Description: Rat L6 myotubes were cultured in an Eagle medium containing 10% bovine serum (α-MEM) in a Petri dish coated with type 1 collagen in 5% CO2/95% O2. The cells were recovered by trypsin treatment in a usual manner and seeded at a density of 50,000 cells/well on a 48-well plate coated with type 1 collagen, and cultured for 3 days to make the cells confluent. After the medium was removed, 500 μL of an Eagle medium containing 2% bovine serum (α-MEM) was added to each well, and then the cells were cultured for 5 days thereby inducing differentiation. Each well was washed with 500 μL KRH buffer (136 mM NaCl, 4.7 mM KCl, 1.25 mM CaCl2, 1.25 mM MgSO4.7H2O, 20 mM Hepes, 1 mg/mL BSA, pH 7.4) carefully such that the cells were not detached. Then, […] KRH buffer containing 1 mM Ile-Leu, Ile-Trp, Ala-Leu, Val-Leu, Gly-Leu, Asp-Leu, Lys-Ile, Leu-Leu, Ile-Ile, Leu-Ile, Ile-Asn, Leu-Ala, Leu-Glu, Leu-Val or Ile-Val (Kokusan Chemical Co., Ltd.) was added to each well and reacted for 3 hours with the cells. Thereafter, the KRH buffer was removed, and […] buffer containing 8 mM 2-deoxyglucose was added to each well and reacted for accurately 10 minutes with for the cells. The reaction was terminated with […] 0.1 N NaOH, followed by neutralization with an equal volume of 0.1 N HCl, and then the amount of 2-deoxyglucose 6-phosphate in the cells was quantified by an enzymatic method to determine the rate of glucose uptake.

Wister rats = assay: Oral glucose tolerance test; format: in vivo; conditions: 0.1 g/kg BW oral with glucose 2.0 g/kg BW
Description: Male Wister rats each weighing about 360 g (6 rats per group) were used. The rats were fasted for 18 hours and then administered with 30% glucose aqueous solution in a dose of 2.0 g/kg body weight (BW). […] After 30, 60, 90, 120 and 180 minutes, blood was collected from a rat tail vein and measured for its blood glucose level with Diasensor (manufactured by ARKRAY, Inc.).

[1] = test system: isolated epitrochlearis muscles; assay: Influence of PI3K inhibitor and GLUT-4 inhibitor on the rate of glucose uptake into isolated muscles; format: cell-based, Wister rats; conditions: 1 mM Ile-Leu alone; average ± SD; control 0.95 ± 0.10
Description: Epitrochlearis muscles were excised from male Wister rats (each weighing 120 g) (8 samples per group) under pentobarbital anesthesia carefully so as not to hurt the epitrochlearis muscles. The epitrochlearis muscles were incubated at 35° C. for 1 hour in KRH buffer containing 0.1% BSA, 8 mM glucose and 32 mM mannitol, in 5% CO2/95% O2. Thereafter, the epitrochlearis muscles were removed and incubated at 30° C. for 30 minutes in KRH buffer containing 0.1% BSA, 40 mM mannitol, and 1 mM Ile-Leu (Kokusan Chemical Co., Ltd.), 1 mM Ile-Leu+10 μM LY294002 (Sigma) or 1 mM Ile-Leu+70 μM cytochalasin B (Sigma) in 5% CO2/95% O2. Then, the epitrochlearis muscles were removed and incubated at 30° C. for accurately 20 minutes in KRH buffer containing 0.1% BSA, 32 mM mannitol and 8 mM 2-deoxyglucose, in 5% CO2/95% O2. Immediately after incubation for accurately 20 minutes, the epitrochlearis muscles were frozen with liquid nitrogen. Thereafter, the frozen epitrochlearis muscles were homogenized in 0.3 M perchloric acid aqueous solution, and after the resulting suspension was neutralized, the amount of 2-deoxyglucose 6-phosphate in the muscles was quantified by an enzymatic method to determine the rate of glucose uptake.

[2] = test system: isolated epitrochlearis muscles; assay: Rate of glucose uptake into isolated muscles; format: cell-based, Wister rats; conditions: 1 mM dipeptide, 30 min at 30° C., then 8 mM 2-deoxyglucose 20 min; average ± SD; control 0.95 ± 0.10
Description: Epitrochlearis muscles were excised from male Wister rats (each weighing 120 g) (16 rats) under pentobarbital anesthesia carefully so as not to hurt the epitrochlearis muscles. The epitrochlearis muscles were incubated at 35° C. for 1 hour in KRH buffer (136 mM NaCl, 4.7 mM KCl, 1.25 mM CaCl2, 1.25 mM MgSO4.7H2O, 20 mM Hepes, 1 mg/mL BSA, pH 7.4; referred to hereinafter as KRH buffer) containing 0.1% bovine serum albumin (BSA), 8 mM glucose and 32 mM mannitol, in 5% CO2/95% O2. Thereafter, the epitrochlearis muscles were removed and incubated (8 samples per group) at 30° C. for 30 minutes in KRH buffer containing 0.1% BSA, 40 mM mannitol, and 1 mM Ile-Leu (Kokusan Chemical Co., Ltd.), 1 mM Ile-Trp (Kokusan Chemical Co., Ltd.), or the milk whey protein hydrolysate containing 1 mM leucine in terms of amino acid, produced in Production Example 1, in 5% CO2/95% O2. Then, the epitrochlearis muscles were removed and incubated at 30° C. for accurately 20 minutes in KRH buffer containing 0.1% BSA, 32 mM mannitol and 8 mM 2-deoxyglucose, in 5% CO2/95% O2. […] Thereafter, the frozen epitrochlearis muscles were homogenized in 0.3 M perchloric acid aqueous solution, and after the resulting suspension was neutralized, the amount of 2-deoxyglucose-6-phosphate in the muscles was quantified by an enzymatic method to determine the rate of glucose uptake.

## Leu-Val
Rat L6 myotubes
  Rate of glucose uptake into muscle cells: 1.74 ± 0.06 nmol/min/well

## Ile-Val
Rat L6 myotubes
  Rate of glucose uptake into muscle cells: 1.80 ± 0.07 nmol/min/well

## Lys-Ile
Rat L6 myotubes
  Rate of glucose uptake into muscle cells: 2.34 ± 0.06 nmol/min/well

## Leu-Leu
Rat L6 myotubes
  Rate of glucose uptake into muscle cells: 1.75 ± 0.05 nmol/min/well

## Val-Leu
Rat L6 myotubes
  Rate of glucose uptake into muscle cells: 1.76 ± 0.07 nmol/min/well

## Ile-Asn
Rat L6 myotubes
  Rate of glucose uptake into muscle cells: 1.92 ± 0.06 nmol/min/well

## Ile-Ile
Rat L6 myotubes
  Rate of glucose uptake into muscle cells: 1.88 ± 0.05 nmol/min/well

## Asp-Leu
Rat L6 myotubes
  Rate of glucose uptake into muscle cells: 1.81 ± 0.50 nmol/min/well

## CC[C@H](C)[C@H](N)C(=O)N[C@@H](CC(C)C)C(=O)O [Ile-Leu, Isoleucyl leucine] (H-Ile-Leu-OH)
Wister rats; 0 minute, fasted rats, average ± SD
  Blood glucose level (change): 0 ± 0 mg/100 mL
Wister rats; 30 minutes, glucose alone 62 ± 4
  Blood glucose level (change): 44 ± 8 mg/100 mL
Wister rats; 60 minutes, glucose alone 61 ± 4
  Blood glucose level (change): 57 ± 7 mg/100 mL
Wister rats; 90 minutes, glucose alone 57 ± 4
  Blood glucose level (change): 35 ± 4 mg/100 mL
Wister rats; 120 minutes, glucose alone 27 ± 6
  Blood glucose level (change): 19 ± 3 mg/100 mL
Wister rats; 180 minutes, glucose alone 5 ± 1
  Blood glucose level (change): 1 ± 3 mg/100 mL
Rat L6 myotubes
  Rate of glucose uptake into muscle cells: 1.61 ± 0.05 nmol/min/well
[1]
  Rate of glucose uptake into isolated skeletal muscles: 1.88 ± 0.40 μmol/min/g muscle
[2]
  Rate of glucose uptake into isolated skeletal muscles: 1.88 ± 0.40 μmol/min/g muscle

## Ala-Leu
Rat L6 myotubes
  Rate of glucose uptake into muscle cells: 1.91 ± 0.07 nmol/min/well

## Ile-Trp
Rat L6 myotubes
  Rate of glucose uptake into muscle cells: 1.91 ± 0.06 nmol/min/well
[2]
  Rate of glucose uptake into isolated skeletal muscles: 1.92 ± 0.31 μmol/min/g muscle

## Leu-Glu
Rat L6 myotubes
  Rate of glucose uptake into muscle cells: 2.16 ± 0.05 nmol/min/well

## Leu-Ala
Rat L6 myotubes
  Rate of glucose uptake into muscle cells: 2.09 ± 0.08 nmol/min/well

## Gly-Leu
Rat L6 myotubes
  Rate of glucose uptake into muscle cells: 1.81 ± 0.04 nmol/min/well

## Leu-Ile
Rat L6 myotubes
  Rate of glucose uptake into muscle cells: 1.73 ± 0.04 nmol/min/well
